Measurements as given in US10681909B2, “Herbicidal triazoles” (FMC Corporation, priority 2014, dated 2020).

Legend:
pigweed [1] = assay: Test A preemergence; format: in vivo, Amaranthus retroflexus; details: 0 to 100 scale (0 no effect, 100 complete control)
Method in brief: (§1)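 Loam/sand soil mix; compound in non-phytotoxic solvent + surfactant. Pre: directed soil spray right after planting seed. Post: potted plants 2–10 cm, 1–2 leaf stage, sprayed with same formulation.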

foxtail, giant [2] = assay: Test A postemergence; format: in vivo, Setaria faberii; details: 0 to 100 scale (0 no effect, 100 complete control), approx. 10 d
Method in brief: as §1

pigweed [3] = assay: Test A postemergence; format: in vivo, Amaranthus retroflexus; details: 0 to 100 scale (0 no effect, 100 complete control), approx. 10 d
Method in brief: as §1

wheat = assay: Test A postemergence; format: in vivo, Triticum aestivum; details: 0 to 100 scale (0 no effect, 100 complete control), approx. 10 d
Method in brief: as §1

sedge, umbrella = assay: Test B flooded paddy test; format: in vivo, Cyperus difformis; details: 250 g ai/ha, applied to paddy water at 2-leaf stage, visual rating after 13 to 15 d, scale 0 (no effect) to 100 (complete control)
Method in brief: (§2)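 Pots were flooded to 3 cm above the soil at treatment, and compounds were applied directly into the paddy water. That depth was held throughout. After 13 to 15 d in a greenhouse, plants were rated visually against untreated controls.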

barnyardgrass [4] = assay: Test B flooded paddy test; format: in vivo, Echinochloa crus-galli; details: 250 g ai/ha, applied to paddy water at 2-leaf stage, visual rating after 13 to 15 d, scale 0 (no effect) to 100 (complete control)
Method in brief: as §2

blackgrass = assay: Test C postemergence; format: in vivo, Alopecurus myosuroides
Method in brief: (§3)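 Plants are treated postemergence at the 1- to 4-leaf stage (2 to 18 cm), grown in sphagnum peat/vermiculite medium; preemergence treatment is applied to seed planted in loam soil with sand. Both use test chemical in a non-phytotoxic solvent mixture with surfactant.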

ryegrass, Italian = assay: Test C postemergence; format: in vivo, Lolium multiflorum
Method in brief: as §3

wheat (winter wheat) = assay: Test C postemergence; format: in vivo, Triticum aestivum
Method in brief: as §3

galium = assay: Test C postemergence; format: in vivo, Galium aparine
Method in brief: as §3

corn = assay: Test C postemergence; format: in vivo, Zea mays
Method in brief: as §3

foxtail, giant [5] = assay: Test C postemergence; format: in vivo, Setaria faberii
Method in brief: as §3

lambsquarters = assay: Test C postemergence; format: in vivo, Chenopodium album
Method in brief: as §3

nutsedge, yellow = assay: Test C postemergence; format: in vivo, Cyperus esculentus
Method in brief: as §3

soybean = assay: Test C postemergence; format: in vivo, Glycine max
Method in brief: as §3

barnyardgrass [6] = assay: Test C postemergence; format: in vivo, Echinochloa crus-galli
Method in brief: as §3

oilseed rape = assay: Test C postemergence; format: in vivo, Brassica napus; details: Oilseed Rape
Method in brief: as §3

waterhemp = assay: Test C postemergence; format: in vivo, Amaranthus rudis
Method in brief: as §3

chickweed = assay: Test C postemergence; format: in vivo, Stellaria media
Method in brief: as §3

oat, wild = assay: Test C postemergence; format: in vivo, Avena fatua
Method in brief: as §3

CCOc1nc(-c2ccc(Cl)cc2)nn1Cc1ccnc(C(F)(F)F)c1 [Compound 26]
Plant response rating, Pigweed (pigweed [1]; 31 g ai/ha): 90 | Plant response rating, Pigweed (pigweed [1]; 125 g ai/ha): 100 | Plant response rating, Foxtail, Giant (foxtail, giant [2]; 31 g ai/ha): 70 | Plant response rating, Foxtail, Giant (foxtail, giant [2]; 125 g ai/ha): 90 | Plant response rating, Pigweed (pigweed [3]; 31 g ai/ha): 80 | Plant response rating, Pigweed (pigweed [3]; 125 g ai/ha): 100 | Plant response rating, Wheat (wheat; 31 g ai/ha): 20 | Plant response rating, Wheat (wheat; 125 g ai/ha): 20 | Plant response rating, Sedge, Umbrella, Flood (sedge, umbrella): 90 | Plant response rating, Barnyardgrass, Flood (barnyardgrass [4]): 50 | Plant response rating (scale of 0 to 100 where 0 is no effect and 100 is complete control) (blackgrass; 16 g ai/ha): 15 | Plant response rating (scale of 0 to 100 where 0 is no effect and 100 is complete control) (blackgrass; 31 g ai/ha): 35 | Plant response rating (scale of 0 to 100 where 0 is no effect and 100 is complete control) (blackgrass; 62 g ai/ha): 40 | Plant response rating (scale of 0 to 100 where 0 is no effect and 100 is complete control) (blackgrass; 125 g ai/ha): 40 | Plant response rating (scale of 0 to 100 where 0 is no effect and 100 is complete control) (ryegrass, Italian; 16 g ai/ha): 20 | Plant response rating (scale of 0 to 100 where 0 is no effect and 100 is complete control) (ryegrass, Italian; 31 g ai/ha): 35 | Plant response rating (scale of 0 to 100 where 0 is no effect and 100 is complete control) (ryegrass, Italian; 62 g ai/ha): 35 | Plant response rating (scale of 0 to 100 where 0 is no effect and 100 is complete control) (ryegrass, Italian; 125 g ai/ha): 40 | Plant response rating (scale of 0 to 100 where 0 is no effect and 100 is complete control) (wheat (winter wheat); 16 g ai/ha): 5 | Plant response rating (scale of 0 to 100 where 0 is no effect and 100 is complete control) (wheat (winter wheat); 31 g ai/ha): 10 | Plant response rating (scale of 0 to 100 where 0 is no effect and 100 is complete control) (wheat (winter wheat); 62 g ai/ha): 10 | Plant response rating (scale of 0 to 100 where 0 is no effect and 100 is complete control) (wheat (winter wheat); 125 g ai/ha): 10 | Plant response rating (scale of 0 to 100 where 0 is no effect and 100 is complete control) (galium; 16 g ai/ha): 80 | Plant response rating (scale of 0 to 100 where 0 is no effect and 100 is complete control) (galium; 31 g ai/ha): 90 | Plant response rating (scale of 0 to 100 where 0 is no effect and 100 is complete control) (galium; 62 g ai/ha): 90 | Plant response rating (scale of 0 to 100 where 0 is no effect and 100 is complete control) (galium; 125 g ai/ha): 90 | Plant response rating (scale of 0 to 100 where 0 is no effect and 100 is complete control) (corn; 16 g ai/ha): 25 | Plant response rating (scale of 0 to 100 where 0 is no effect and 100 is complete control) (corn; 31 g ai/ha): 25 | Plant response rating (scale of 0 to 100 where 0 is no effect and 100 is complete control) (corn; 62 g ai/ha): 30 | Plant response rating (scale of 0 to 100 where 0 is no effect and 100 is complete control) (corn; 125 g ai/ha): 35 | Plant response rating (scale of 0 to 100 where 0 is no effect and 100 is complete control) (foxtail, giant [5]; 16 g ai/ha): 10 | Plant response rating (scale of 0 to 100 where 0 is no effect and 100 is complete control) (foxtail, giant [5]; 31 g ai/ha): 20 | Plant response rating (scale of 0 to 100 where 0 is no effect and 100 is complete control) (foxtail, giant [5]; 62 g ai/ha): 25 | Plant response rating (scale of 0 to 100 where 0 is no effect and 100 is complete control) (foxtail, giant [5]; 125 g ai/ha): 40 | Plant response rating (scale of 0 to 100 where 0 is no effect and 100 is complete control) (lambsquarters; 16 g ai/ha): 100 | Plant response rating (scale of 0 to 100 where 0 is no effect and 100 is complete control) (lambsquarters; 31 g ai/ha): 100 | Plant response rating (scale of 0 to 100 where 0 is no effect and 100 is complete control) (lambsquarters; 62 g ai/ha): 100 | Plant response rating (scale of 0 to 100 where 0 is no effect and 100 is complete control) (lambsquarters; 125 g ai/ha): 100 | Plant response rating (scale of 0 to 100 where 0 is no effect and 100 is complete control) (nutsedge, yellow; 16 g ai/ha): 15 | Plant response rating (scale of 0 to 100 where 0 is no effect and 100 is complete control) (nutsedge, yellow; 31 g ai/ha): 25 | Plant response rating (scale of 0 to 100 where 0 is no effect and 100 is complete control) (nutsedge, yellow; 62 g ai/ha): 30 | Plant response rating (scale of 0 to 100 where 0 is no effect and 100 is complete control) (nutsedge, yellow; 125 g ai/ha): 20 | Plant response rating (scale of 0 to 100 where 0 is no effect and 100 is complete control) (soybean; 16 g ai/ha): 35 | Plant response rating (scale of 0 to 100 where 0 is no effect and 100 is complete control) (soybean; 31 g ai/ha): 70 | Plant response rating (scale of 0 to 100 where 0 is no effect and 100 is complete control) (soybean; 62 g ai/ha): 65 | Plant response rating (scale of 0 to 100 where 0 is no effect and 100 is complete control) (soybean; 125 g ai/ha): 70 | Plant response rating (scale of 0 to 100 where 0 is no effect and 100 is complete control) (barnyardgrass [6]; 16 g ai/ha): 25 | Plant response rating (scale of 0 to 100 where 0 is no effect and 100 is complete control) (barnyardgrass [6]; 31 g ai/ha): 30 | Plant response rating (scale of 0 to 100 where 0 is no effect and 100 is complete control) (barnyardgrass [6]; 62 g ai/ha): 45 | Plant response rating (scale of 0 to 100 where 0 is no effect and 100 is complete control) (barnyardgrass [6]; 125 g ai/ha): 55 | Plant response rating (scale of 0 to 100 where 0 is no effect and 100 is complete control) (oilseed rape; 16 g ai/ha): 90 | Plant response rating (scale of 0 to 100 where 0 is no effect and 100 is complete control) (oilseed rape; 31 g ai/ha): 98 | Plant response rating (scale of 0 to 100 where 0 is no effect and 100 is complete control) (oilseed rape; 62 g ai/ha): 90 | Plant response rating (scale of 0 to 100 where 0 is no effect and 100 is complete control) (oilseed rape; 125 g ai/ha): 95 | Plant response rating (scale of 0 to 100 where 0 is no effect and 100 is complete control) (waterhemp; 16 g ai/ha): 95 | Plant response rating (scale of 0 to 100 where 0 is no effect and 100 is complete control) (waterhemp; 31 g ai/ha): 98 | Plant response rating (scale of 0 to 100 where 0 is no effect and 100 is complete control) (waterhemp; 62 g ai/ha): 98 | Plant response rating (scale of 0 to 100 where 0 is no effect and 100 is complete control) (waterhemp; 125 g ai/ha): 98 | Plant response rating (scale of 0 to 100 where 0 is no effect and 100 is complete control) (chickweed; 16 g ai/ha): 90 | Plant response rating (scale of 0 to 100 where 0 is no effect and 100 is complete control) (chickweed; 31 g ai/ha): 95 | Plant response rating (scale of 0 to 100 where 0 is no effect and 100 is complete control) (chickweed; 62 g ai/ha): 95 | Plant response rating (scale of 0 to 100 where 0 is no effect and 100 is complete control) (chickweed; 125 g ai/ha): 95 | Plant response rating (scale of 0 to 100 where 0 is no effect and 100 is complete control) (oat, wild; 16 g ai/ha): 35 | Plant response rating (scale of 0 to 100 where 0 is no effect and 100 is complete control) (oat, wild; 31 g ai/ha): 35 | Plant response rating (scale of 0 to 100 where 0 is no effect and 100 is complete control) (oat, wild; 62 g ai/ha): 40 | Plant response rating (scale of 0 to 100 where 0 is no effect and 100 is complete control) (oat, wild; 125 g ai/ha): 45
